Drawing on ChEMBL document CHEMBL1138046, “Discovery of a new boron-containing antifungal agent, 5-fluoro-1,3-dihydro-1-hydroxy-2,1- benzoxaborole (AN2690), for the potential treatment of onychomycosis” (2006), this text covers MIC for 34 compounds.

≈ marks a conversion by molar mass, not a printed value.

One assay concerns Trichophyton rubrum. As to the kind of experiment: Antifungal activity against Trichophyton rubrum. The class given is functional.
For a further assay, the system named is Trichophyton benhamiae. As to the kind of experiment: Antifungal activity against Trichophyton mentagrophytes. The class given is functional, Arthroderma benhamiae.
For the next assay, the system named is Candida albicans. As to the kind of experiment: Antifungal activity against Candida albicans. Type of assay: functional.
The subject of another assay is Cryptococcus neoformans. As to the kind of experiment: Antifungal activity against Cryptococcus neoformans. Type of assay: functional.
Another assay relates to Aspergillus fumigatus. The experiment in a line: Antifungal activity against Aspergillus fumigatus. Type of assay: functional.

For orientation: MIC means the lowest concentration that inhibits growth of the organism. Read a high MIC as a less susceptible organism. As for `Fc1ccc(B2OCc3ccccc32)cc1`, the MIC was 8 µg/mL (≈ 37.7 µM) with Trichophyton rubrum; 4 µg/mL (≈ 18.9 µM) with Trichophyton benhamiae; 4 µg/mL (≈ 18.9 µM) in the assay on Candida albicans; 2 µg/mL (≈ 9.43 µM) in the assay on Cryptococcus neoformans; 2 µg/mL (≈ 9.43 µM) in the assay with Aspergillus fumigatus.
`c1ccc(B2OCCc3ccccc32)cc1`: the MIC was 8 µg/mL (≈ 38.4 µM) against Trichophyton rubrum; 8 µg/mL (≈ 38.4 µM) in the assay with Trichophyton benhamiae; 8 µg/mL (≈ 38.4 µM) in the assay on Candida albicans; 16 µg/mL (≈ 76.9 µM) against Cryptococcus neoformans; 16 µg/mL (≈ 76.9 µM) against Aspergillus fumigatus.
For `C=CB1OCc2cc(F)ccc21`, the MIC in the assay on Trichophyton rubrum was 4 µg/mL (≈ 24.7 µM); in the assay with Trichophyton benhamiae it was 2 µg/mL (≈ 12.3 µM); in the assay on Candida albicans, 1 µg/mL (≈ 6.17 µM); in the assay with Cryptococcus neoformans, 4 µg/mL (≈ 24.7 µM); with Aspergillus fumigatus it was 2 µg/mL (≈ 12.3 µM).
Regarding `Fc1ccc2c(c1)COB2/C=C/c1ccccc1`, the MIC against Trichophyton rubrum was not above 1 µg/mL; against Trichophyton benhamiae, 2 µg/mL (≈ 8.4 µM); with Candida albicans it was 0.5 µg/mL (≈ 2.1 µM); with Cryptococcus neoformans, 0.5 µg/mL (≈ 2.1 µM); in the assay on Aspergillus fumigatus, 1 µg/mL (≈ 4.2 µM).
In the case of `Cc1cscc1B1OCc2cc(F)ccc21`, the MIC in the assay with Trichophyton rubrum is 1 µg/mL (≈ 4.31 µM); against Trichophyton benhamiae it was 2 µg/mL (≈ 8.62 µM); in the assay on Candida albicans, 1 µg/mL (≈ 4.31 µM); in the assay on Cryptococcus neoformans, 1 µg/mL (≈ 4.31 µM); in the assay with Aspergillus fumigatus, 1 µg/mL (≈ 4.31 µM).
As to `Fc1cccc(B2OCc3cc(F)ccc32)c1`, the MIC against Trichophyton rubrum is 1 µg/mL (≈ 4.35 µM); with Trichophyton benhamiae, 2 µg/mL (≈ 8.69 µM); with Candida albicans it was 0.5 µg/mL (≈ 2.17 µM); in the assay on Cryptococcus neoformans, 1 µg/mL (≈ 4.35 µM); against Aspergillus fumigatus it was 1 µg/mL (≈ 4.35 µM).
Turning to `OCc1ccc2c(c1)COB2O`, the MIC in the assay with Trichophyton rubrum was 64 µg/mL (≈ 390 µM); against Trichophyton benhamiae it was 64 µg/mL (≈ 390 µM); with Candida albicans, more than 64 µg/mL; in the assay with Cryptococcus neoformans it was more than 64 µg/mL; against Aspergillus fumigatus, more than 64 µg/mL.
In the case of `OB1OCc2c(F)cccc21`, the MIC turned out to be 16 µg/mL (≈ 105 µM) with Trichophyton rubrum; 16 µg/mL (≈ 105 µM) with Trichophyton benhamiae; 64 µg/mL (≈ 421 µM) in the assay with Candida albicans; 32 µg/mL (≈ 211 µM) against Cryptococcus neoformans; 32 µg/mL (≈ 211 µM) against Aspergillus fumigatus.
Take `CC1OB(O)c2ccc(F)cc21` (stereo not given): the MIC against Trichophyton rubrum worked out at 32 µg/mL (≈ 193 µM); against Trichophyton benhamiae, 16 µg/mL (≈ 96.4 µM); in the assay on Candida albicans it was 16 µg/mL (≈ 96.4 µM); against Cryptococcus neoformans it was 32 µg/mL (≈ 193 µM); with Aspergillus fumigatus it was 16 µg/mL (≈ 96.4 µM).
Turning to `Fc1ccc2c(c1)COB2c1ccccc1`, the MIC against Trichophyton rubrum was found to be 1 µg/mL (≈ 4.72 µM); with Trichophyton benhamiae it was 2 µg/mL (≈ 9.43 µM); against Candida albicans, 0.5 µg/mL (≈ 2.36 µM); in the assay with Cryptococcus neoformans it was 2 µg/mL (≈ 9.43 µM); with Aspergillus fumigatus it was 2 µg/mL (≈ 9.43 µM).
On to `C(=C\c1ccccc1)/B1OCc2ccccc21`, for which the MIC came out at 8 µg/mL (≈ 36.4 µM) against Trichophyton rubrum; 8 µg/mL (≈ 36.4 µM) against Trichophyton benhamiae; 2 µg/mL (≈ 9.09 µM) in the assay on Candida albicans; 4 µg/mL (≈ 18.2 µM) in the assay on Cryptococcus neoformans; 4 µg/mL (≈ 18.2 µM) in the assay with Aspergillus fumigatus.
Take `OB1OCc2ccc3ccccc3c21`: the MIC with Trichophyton rubrum was found to be 4 µg/mL (≈ 21.7 µM); in the assay with Trichophyton benhamiae, 2 µg/mL (≈ 10.9 µM); with Candida albicans, 32 µg/mL (≈ 174 µM); in the assay on Cryptococcus neoformans, 32 µg/mL (≈ 174 µM); against Aspergillus fumigatus, 32 µg/mL (≈ 174 µM).
Turning to `OB1OCc2cc(F)c(F)cc21`, the MIC was 4 µg/mL (≈ 23.5 µM) against Trichophyton rubrum; 4 µg/mL (≈ 23.5 µM) against Trichophyton benhamiae; 4 µg/mL (≈ 23.5 µM) with Candida albicans; 2 µg/mL (≈ 11.8 µM) against Cryptococcus neoformans; 2 µg/mL (≈ 11.8 µM) in the assay with Aspergillus fumigatus.
Turning to `OB1OCc2cccc(F)c21`, the MIC in the assay with Trichophyton rubrum was determined as 16 µg/mL (≈ 105 µM); in the assay on Trichophyton benhamiae it was 16 µg/mL (≈ 105 µM); against Candida albicans, 32 µg/mL (≈ 211 µM); against Cryptococcus neoformans, 32 µg/mL (≈ 211 µM); in the assay with Aspergillus fumigatus, 4 µg/mL (≈ 26.3 µM).
As for `OB1OCc2cc(C(F)(F)F)ccc21`, the MIC against Trichophyton rubrum worked out at 8 µg/mL (≈ 39.6 µM); with Trichophyton benhamiae it was 8 µg/mL (≈ 39.6 µM); with Candida albicans, 16 µg/mL (≈ 79.2 µM); against Cryptococcus neoformans, 16 µg/mL (≈ 79.2 µM); against Aspergillus fumigatus, 8 µg/mL (≈ 39.6 µM).
With `Fc1ccc2c(c1)COB2c1cccnc1`, the MIC stood at 16 µg/mL (≈ 75.1 µM) in the assay on Trichophyton rubrum; 32 µg/mL (≈ 150 µM) in the assay on Trichophyton benhamiae; 4 µg/mL (≈ 18.8 µM) with Candida albicans; 16 µg/mL (≈ 75.1 µM) with Cryptococcus neoformans; 16 µg/mL (≈ 75.1 µM) against Aspergillus fumigatus.
In the case of `Cc1cccc(B2OCc3cc(F)ccc32)c1`, the MIC against Trichophyton rubrum was 2 µg/mL (≈ 8.85 µM); against Trichophyton benhamiae it was 4 µg/mL (≈ 17.7 µM); in the assay with Candida albicans, 1 µg/mL (≈ 4.42 µM); against Cryptococcus neoformans it was 0.5 µg/mL (≈ 2.21 µM); with Aspergillus fumigatus, 0.5 µg/mL (≈ 2.21 µM).
As for `Cc1ccc2c(c1)COB2O`, the MIC with Trichophyton rubrum worked out at 8 µg/mL (≈ 54.1 µM); with Trichophyton benhamiae, 4 µg/mL (≈ 27 µM); against Candida albicans, 2 µg/mL (≈ 13.5 µM); against Cryptococcus neoformans, 8 µg/mL (≈ 54.1 µM); against Aspergillus fumigatus, 2 µg/mL (≈ 13.5 µM).
Regarding `OB1OCCc2cc(F)ccc21`, the MIC in the assay with Trichophyton rubrum is 32 µg/mL (≈ 193 µM); with Trichophyton benhamiae, 32 µg/mL (≈ 193 µM); with Candida albicans it was 64 µg/mL (≈ 386 µM); in the assay on Cryptococcus neoformans, more than 64 µg/mL; with Aspergillus fumigatus, 32 µg/mL (≈ 193 µM).
Regarding `Fc1ccc2c(c1)COB2c1cccc(Cl)c1`, the MIC against Trichophyton rubrum was found to be 4 µg/mL (≈ 16.2 µM); in the assay with Trichophyton benhamiae, 8 µg/mL (≈ 32.5 µM); against Candida albicans, 0.25 µg/mL (≈ 1.01 µM); against Cryptococcus neoformans, 0.5 µg/mL (≈ 2.03 µM); against Aspergillus fumigatus, 2 µg/mL (≈ 8.11 µM).
`c1ccc(B2OCc3ccccc32)cc1`: the MIC amounted to 4 µg/mL (≈ 20.6 µM) against Trichophyton rubrum; 4 µg/mL (≈ 20.6 µM) in the assay with Trichophyton benhamiae; 4 µg/mL (≈ 20.6 µM) in the assay with Candida albicans; 8 µg/mL (≈ 41.2 µM) in the assay on Cryptococcus neoformans; 4 µg/mL (≈ 20.6 µM) in the assay on Aspergillus fumigatus.
Take `Fc1cccc(B2OCc3ccccc32)c1`: the MIC in the assay on Trichophyton rubrum worked out at 8 µg/mL (≈ 37.7 µM); against Trichophyton benhamiae, 16 µg/mL (≈ 75.5 µM); against Candida albicans it was 4 µg/mL (≈ 18.9 µM); with Cryptococcus neoformans, 4 µg/mL (≈ 18.9 µM); in the assay on Aspergillus fumigatus, 8 µg/mL (≈ 37.7 µM).
For `Fc1ccc(B2OCc3cc(F)ccc32)cc1`, the MIC against Trichophyton rubrum is 4 µg/mL (≈ 17.4 µM); with Trichophyton benhamiae, 4 µg/mL (≈ 17.4 µM); in the assay on Candida albicans, 1 µg/mL (≈ 4.35 µM); against Cryptococcus neoformans it was 1 µg/mL (≈ 4.35 µM); in the assay on Aspergillus fumigatus it was 2 µg/mL (≈ 8.69 µM).
`Clc1cccc(B2OCc3ccccc32)c1`: the MIC against Trichophyton rubrum stood at 16 µg/mL (≈ 70 µM); with Trichophyton benhamiae it was 8 µg/mL (≈ 35 µM); in the assay with Candida albicans it was 8 µg/mL (≈ 35 µM); against Cryptococcus neoformans, 4 µg/mL (≈ 17.5 µM); in the assay with Aspergillus fumigatus it was 8 µg/mL (≈ 35 µM).
Consider `Cc1ccc(B2OCc3cc(F)ccc32)cc1`, for which the MIC against Trichophyton rubrum is 2 µg/mL (≈ 8.85 µM); against Trichophyton benhamiae it was 2 µg/mL (≈ 8.85 µM); in the assay on Candida albicans, 0.5 µg/mL (≈ 2.21 µM); against Cryptococcus neoformans it was 0.5 µg/mL (≈ 2.21 µM); against Aspergillus fumigatus, 0.5 µg/mL (≈ 2.21 µM).
For `N#Cc1ccc2c(c1)COB2O`, the MIC against Trichophyton rubrum is 16 µg/mL (≈ 101 µM); against Trichophyton benhamiae it was 16 µg/mL (≈ 101 µM); against Candida albicans it was 8 µg/mL (≈ 50.3 µM); against Cryptococcus neoformans it was 8 µg/mL (≈ 50.3 µM); in the assay on Aspergillus fumigatus, 16 µg/mL (≈ 101 µM).
Consider `Fc1ccc2c(c1)COB2c1ccsc1`, for which the MIC against Trichophyton rubrum amounted to 1 µg/mL (≈ 4.59 µM); against Trichophyton benhamiae it was 4 µg/mL (≈ 18.3 µM); against Candida albicans, 1 µg/mL (≈ 4.59 µM); in the assay on Cryptococcus neoformans, 1 µg/mL (≈ 4.59 µM); with Aspergillus fumigatus, 1 µg/mL (≈ 4.59 µM).
Turning to `OB1OCc2ccc(F)cc21`, the MIC in the assay with Trichophyton rubrum is 16 µg/mL (≈ 105 µM); in the assay with Trichophyton benhamiae it was 32 µg/mL (≈ 211 µM); against Candida albicans, 16 µg/mL (≈ 105 µM); with Cryptococcus neoformans it was 32 µg/mL (≈ 211 µM); in the assay with Aspergillus fumigatus, 8 µg/mL (≈ 52.7 µM).
Regarding `Fc1ccc2c(c1)CCOB2c1ccccc1`, the MIC in the assay on Trichophyton rubrum, against Trichophyton benhamiae, against Candida albicans, with Cryptococcus neoformans and against Aspergillus fumigatus was 8 µg/mL (≈ 35.4 µM) throughout.
Consider `Fc1ccc2c(c1)COB2c1ccoc1`, for which the MIC against Trichophyton rubrum, against Trichophyton benhamiae, with Candida albicans, in the assay on Cryptococcus neoformans and in the assay with Aspergillus fumigatus was 4 µg/mL (≈ 19.8 µM) in each case.
Turning to `OB1OCc2cc(Cl)ccc21` [AN-2718], the MIC against Trichophyton rubrum worked out at 1 µg/mL (≈ 5.94 µM); in the assay with Trichophyton benhamiae, 2 µg/mL (≈ 11.9 µM); with Candida albicans, 1 µg/mL (≈ 5.94 µM); against Cryptococcus neoformans, 2 µg/mL (≈ 11.9 µM); in the assay with Aspergillus fumigatus, 1 µg/mL (≈ 5.94 µM).
On to `OB1OCc2ccccc21` [BENZOXABOROLE], for which the MIC amounted to 8 µg/mL (≈ 59.7 µM) with Trichophyton rubrum; 4 µg/mL (≈ 29.9 µM) in the assay with Trichophyton benhamiae; 2 µg/mL (≈ 14.9 µM) against Candida albicans; 1 µg/mL (≈ 7.47 µM) with Cryptococcus neoformans; 2 µg/mL (≈ 14.9 µM) in the assay on Aspergillus fumigatus.
On to `Cc1cc(C2CCCCC2)n(O)c(=O)c1` [CICLOPIROX], for which the MIC was 0.5 µg/mL (≈ 2.41 µM) with Trichophyton rubrum; 0.5 µg/mL (≈ 2.41 µM) against Trichophyton benhamiae; 0.5 µg/mL (≈ 2.41 µM) in the assay with Candida albicans; 0.5 µg/mL (≈ 2.41 µM) against Cryptococcus neoformans; 1 µg/mL (≈ 4.82 µM) against Aspergillus fumigatus.
Take `OB1OCc2cc(F)ccc21` [TAVABOROLE]: the MIC worked out at 1 µg/mL (≈ 6.58 µM) in the assay with Trichophyton rubrum; 1 µg/mL (≈ 6.58 µM) in the assay with Trichophyton benhamiae; 0.5 µg/mL (≈ 3.29 µM) in the assay on Candida albicans; 0.25 µg/mL (≈ 1.65 µM) against Cryptococcus neoformans; 0.25 µg/mL (≈ 1.65 µM) with Aspergillus fumigatus.
